Structures can show the parent of a compound that is named as a salt.

Holding throughout (type): cell-based
The subject of assay [1] is Klebsiella pneumoniae XNWB 0005. Nature of the assay: MIC assay of test compounds combined with ceftazidime (8 μg/mL). To be noted: ceftazidime 8 μg/mL fixed. The procedure, abridged: (§1)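 Strains grown on TSA, colonies suspended to OD600 0.1-0.15, diluted 300-fold in CAMHB; compound dilutions combined with fixed ceftazidime or imipenem at concentrations given in assay names. Incubated 16-20 h at 35±2 °C; MIC read per CLSI guidelines, with growth and sterility controls.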

For assay [2], the system named is Klebsiella pneumoniae XNWB 0003. Described as above. To be noted: ceftazidime 8 μg/mL fixed. The procedure, abridged: as §1
The subject of assay [3] is Acinetobacter baumannii XNWB 0007. The description is as above. To be noted: ceftazidime 8 μg/mL fixed. The procedure, abridged:
as §1

Assay [4] concerns Pseudomonas aeruginosa XNWB 0008. The description is as above. To be noted: ceftazidime 8 μg/mL fixed. The procedure, abridged: as §1
Assay [5] relates to Klebsiella pneumoniae XNWB 0001. The description is as above. To be noted: ceftazidime 8 μg/mL fixed. The method, boiled down:
as §1

Assay [6] has as its system Klebsiella pneumoniae XNWB 0006. The description is as above. To be noted: ceftazidime 8 μg/mL fixed. The method, boiled down: as §1
Assay [7] concerns Klebsiella pneumoniae XNWB 0004. The assay is described as above. To be noted: ceftazidime 8 μg/mL fixed. The method, boiled down: as §1
In assay [8] the test system is Klebsiella pneumoniae XNWB 0002. Described as above. To be noted: ceftazidime 8 μg/mL fixed. The method, boiled down:
as §1

The subject of assay [9] is Klebsiella pneumoniae XNWB 0005. Nature of the assay: MIC assay of test compounds combined with imipenem (4 μg/mL). To be noted: imipenem 4 μg/mL fixed. The procedure, abridged: as §1
Assay [10] has as its system Klebsiella pneumoniae XNWB 0003. The assay is described as above. To be noted: imipenem 4 μg/mL fixed. The procedure, abridged: as §1
For assay [11], the system named is Acinetobacter baumannii XNWB 0007. The assay is described as above. To be noted: imipenem 4 μg/mL fixed. The method, boiled down: as §1
Assay [12] has as its system Pseudomonas aeruginosa XNWB 0008. The description is as above. To be noted: imipenem 4 μg/mL fixed. The procedure, abridged: as §1
Assay [13] relates to Klebsiella pneumoniae XNWB 0001. The assay is described as above. To be noted: imipenem 4 μg/mL fixed. The method, boiled down:
as §1

In assay [14] the test system is Klebsiella pneumoniae XNWB 0006. The description is as above. To be noted: imipenem 4 μg/mL fixed. The procedure, abridged:
as §1

The subject of assay [15] is Klebsiella pneumoniae XNWB 0004. Described as above. To be noted: imipenem 4 μg/mL fixed. The procedure, abridged:
as §1

The subject of assay [16] is Klebsiella pneumoniae XNWB 0002. The assay is described as above. To be noted: imipenem 4 μg/mL fixed. The method, boiled down:
as §1

The test system of assay [17] is Escherichia coli XNWB 0009. Nature of the assay: MIC assay of test compounds combined with ampicillin (8 μg/mL). To be noted: ampicillin 8 μg/mL fixed. How it is done: (§2) The bacterial strains used for the minimum inhibitory concentration (MIC) test were frozen in a −80° C. ULT freezer and thawed 2 days before use. A small amount of frozen bacterial strains were scraped using a sterile inoculating loop, streaked onto a TSA solid culture dish for inoculation, and then cultured for 20-24 h at 35±2° C. in a normal atmospheric environment.
(§3) 5-10 colonies with similar morphology were picked from the culture dish using a sterile inoculating loop and then re-streaked onto a suitable solid culture dish. Then the dish was placed into a normal incubator for culture for 20-24 h at 35±2° C.
(§4) 5-10 single bacterial colonies were picked from the solid culture dish, resuspended in 500 μL of 0.9% NaCl, and adjusted to an OD600 of 0.1-0.15 with a spectrophotometer.
(§5) The bacteria were then diluted 300-fold with 1.1×CAMHB.
(§6) Test compounds of columns A-H: having a highest final test concentration of 64 μg/mL or 32 μg/mL, 2-fold diluted.
(§7) Dilution of test compounds: All test compounds were dissolved and diluted in dimethylsulfoxide (DMSO). 170 μL of 3.2 mg/mL (50*64 μg/mL) compound was transferred to wells (A1-H1) of column 1 of a dilution master plate and then 85 μL of DMSO was transferred to wells of other columns. Each compound was diluted 2-fold in sequence (i.e., 85 μL of compound was pipetted from column 1 into column 2 and mixed uniformly, 85 μL of compound was pipetted from column 2 into column 3 and mixed uniformly, then 85 μL of compound was pipetted from column 3 into column 4 and mixed uniformly, and so on until the dilution was done in column 11).
(§8) Preparation of an additive of ampicillin: Ampicillin was dissolved in ddH2O. 30 μL of 100 μg/mL (12.5×8 μg/mL) ampicillin was transferred to columns 1-11 of an additive plate, followed by the addition of 30 μL of ddH2O to column 12.
(§9) 2 μL of each compound in the dilution master plate of the test compounds was transferred to the corresponding well of the assay plates. In the mean time, 2 μL of 100% DMSO was transferred to the compound-free wells (GC and SC wells). (1) 8 μL of imipenem in the additive plate of imipenem was transferred to the corresponding wells of the assay plates; (2) 8 μL of ceftazidime in the additive plate of ceftazidime was transferred to the corresponding wells of the assay plates; (3) 8 μL of ampicillin in the additive plate of ampicillin was transferred to the corresponding wells of the assay plates.
(§10) 90 μL of corresponding bacterial inocula were added to wells (except for SC wells) of the assay plates.
(§11) After addition, the 6 assay plates were covered by sterile covers. The mixtures in the assay plates were centrifuged by a centrifuge at 1000 rpm for 30 s, and mixed uniformly by oscillating with a microplate oscillator at 800 rpm for 1 min, and then cultured in a common incubator for 16-20 h at 35±2° C.
(§12) The minimum inhibitory concentration of each compound was recorded by reference to guidelines from the Clinical and Laboratory Standards Institute.
(§13) The minimum inhibitory concentrations of the compounds of the present invention and antibiotics (imipenem, ceftazidime, and ampicillin) against 11 strains of bacteria were tested in this study by reference to the medium microdilution method as indicated by the Clinical and Laboratory Standards Institute. The effect of the test compounds in combination with imipenem, ceftazidime, and ampicillin was also tested. Compounds were diluted two-fold in 96-well plates from the highest detection concentration of 64 μg/mL. The test compounds were tested in combination with a fixed concentration of imipenem (4 μg/mL), ceftazidime (8 μg/mL), and ampicillin (8 μg/mL). The bacterial inocula in the assay plates were resuscitated from TSA and diluted in CAMHB, while growth controls (GC wells) and sterile controls (SC wells) were set up in the assay plates. […]

The test system of assay [18] is Escherichia coli XNWB 0010. The description is as above. To be noted: ampicillin 8 μg/mL fixed. How it is done: as §2, §3, §4, §5, §6, §7, §8, §9, §10, §11, §12, §13
Assay [19] relates to Enterobacter aerogenes XNWB 0011. The description is as above. To be noted: ampicillin 8 μg/mL fixed. How it is done: as §2, §3, §4, §5, §6, §7, §8, §9, §10, §11, §12, §13

Regarding `N=C(N)NCc1nnc([C@@H]2CC3(CC3)[C@@H]3CN2C(=O)N3OS(=O)(=O)O)o1` [Example 3, (1R,4S)-4-(5-(guanidinomethyl)-1,3,4-oxadiazol-2-yl)-6-oxo-5,7-diazaspiro[bicycle [3.2.1]octane-2,1′-cyclopropan]-7-yl sulfate], the “The minimum concentration of test compounds combined with ceftazidime (8 μg/mL) for bacteriostasis” value was “B (B: 8-16 μg/mL)” in [1]; “B (B: 8-16 μg/mL)” in [2]; “C (C: 16-128 μg/mL)” in [3]; “C (C: 16-128 μg/mL)” in [4]; “B (B: 8-16 μg/mL)” in assay [5]; “A (A: <8 μg/mL)” in assay [6]. Also, the “The minimum concentration of test compounds combined with ceftazidime (8 μg/mL) for bacteriostasis” value is “B (B: 8-16 μg/mL)” in assay [7] and “A (A: <8 μg/mL)” in [8]. Moreover, the “The minimum concentration of test compounds combined with imipenem (4 μg/mL) for bacteriostasis” value in assay [9] is on record as “A (A: <8 μg/mL)”; in assay [10], “A (A: <8 μg/mL)”; in assay [11], “C (C: 16-128 μg/mL)”; in assay [12], “C (C: 16-128 μg/mL)”; in assay [13], “B (B: 8-16 μg/mL)”; in [14] it was “A (A: <8 μg/mL)”. Further, the “The minimum concentration of test compounds combined with imipenem (4 μg/mL) for bacteriostasis” value in assay [15] and in assay [16] was “A (A: <8 μg/mL)” in each case. Moreover, the “The minimum concentration of test compounds combined with ampicillin (8 μg/mL) for bacteriostasis” value in assay [17] was “A (A: <8 μg/mL)”; in assay [18] it was “B (B: 8-16 μg/mL)”; in [19] it was “C (C: 16-128 μg/mL)”.
For `NCCc1cc([C@@H]2CC3(CC3)[C@@H]3CN2C(=O)N3OS(=O)(=O)O)no1` [Example 41, (1R,4S)-4-(5-(2-aminoethyl)isoxazol-3-yl)-6-oxo-5,7-diazaspiro[bicyclo[3.2.1]octane-2,1′-cyclopropan]-7-yl sulfate], the “The minimum concentration of test compounds combined with ceftazidime (8 μg/mL) for bacteriostasis” value in [1] is recorded as “A (A: <8 μg/mL)”; in assay [2], “A (A: <8 μg/mL)”; in assay [3], “C (C: 16-128 μg/mL)”; in assay [4], “C (C: 16-128 μg/mL)”; in assay [5], “A (A: <8 μg/mL)”; in [6] it was “A (A: <8 μg/mL)”. Further, the “The minimum concentration of test compounds combined with ceftazidime (8 μg/mL) for bacteriostasis” value was “B (B: 8-16 μg/mL)” in [7] and “A (A: <8 μg/mL)” in assay [8]. Moreover, the “The minimum concentration of test compounds combined with imipenem (4 μg/mL) for bacteriostasis” value in assay [9] was “A (A: <8 μg/mL)”; in assay [10], “A (A: <8 μg/mL)”; in [11], “C (C: 16-128 μg/mL)”; in assay [12], “A (A: <8 μg/mL)”; in assay [13] it was “A (A: <8 μg/mL)”; in [14], “A (A: <8 μg/mL)”. The “The minimum concentration of test compounds combined with imipenem (4 μg/mL) for bacteriostasis” value in [15] and in [16] was “A (A: <8 μg/mL)” each time. Further, the “The minimum concentration of test compounds combined with ampicillin (8 μg/mL) for bacteriostasis” value is listed as “A (A: <8 μg/mL)” in assay [17], “A (A: <8 μg/mL)” in assay [18] and “B (B: 8-16 μg/mL)” in assay [19].
As to `NCc1nnc([C@@H]2CC3(CC3)[C@@H]3CN2C(=O)N3OS(=O)(=O)O)o1` [Example 2, (1R,4S)-4-(5-(aminomethyl)-1,3,4-oxadiazol-2-yl)-6-oxo-5,7-diazaspiro[bicycle [3.2.1]octane-2,1′-cyclopropan]-7-yl sulfate], the “The minimum concentration of test compounds combined with ceftazidime (8 μg/mL) for bacteriostasis” value is “A (A: <8 μg/mL)” in assay [1]; “A (A: <8 μg/mL)” in assay [2]; “C (C: 16-128 μg/mL)” in assay [3]; “C (C: 16-128 μg/mL)” in assay [4]; “A (A: <8 μg/mL)” in assay [5]; “A (A: <8 μg/mL)” in assay [6]. The “The minimum concentration of test compounds combined with ceftazidime (8 μg/mL) for bacteriostasis” value is on record as “B (B: 8-16 μg/mL)” in [7] and “A (A: <8 μg/mL)” in assay [8]. For the same molecule, the “The minimum concentration of test compounds combined with imipenem (4 μg/mL) for bacteriostasis” value in [9] is “A (A: <8 μg/mL)”; in [10] it was “A (A: <8 μg/mL)”; in assay [11], “C (C: 16-128 μg/mL)”; in assay [12] it was “C (C: 16-128 μg/mL)”; in assay [13] it was “A (A: <8 μg/mL)”; in [14] it was “A (A: <8 μg/mL)”. For the same molecule, the “The minimum concentration of test compounds combined with imipenem (4 μg/mL) for bacteriostasis” value in assay [15] and in [16] was “A (A: <8 μg/mL)” each time. The “The minimum concentration of test compounds combined with ampicillin (8 μg/mL) for bacteriostasis” value in [17], in assay [18] and in assay [19] was “A (A: <8 μg/mL)” in each case.

The values are drawn from US11078202B2, “β-lactamase inhibitor and use thereof” (priority 2018, dated 2021).
